From ChEMBL document CHEMBL3886859, “Pyridine derivatives” (2016)

Tests used:
Cathepsin S = Cathepsin S (Homo sapiens, UniProt P25774); test: (§1) Enzyme Inhibition Assay: Enzyme activity is measured by observing the increase in fluorescence intensity caused by cleavage of a peptide substrate containing a fluorophore whose emission is quenched in the intact peptide.Assay buffer: 100 mM potassium phosphate pH 6.5, EDTA-Na 5 mM, Triton X-100 0.001%, DTT 5 mM.Enzymes (all at 1 nM): human and mouse Cathepsin S, Cat K, Cat B, Cat L.Substrate (20 μM): Z-Val-Val-Arg-AMC, except for Cat K which uses Z-Leu-Arg-AMC (both from Bachem).Z=Benzyloxycarbonyl.AMC=7-Amino-4-Methyl-Coumarin.DTT=dithiothreitol.Final volume: 100 μL.Excitation 360 nm, Emission 465 nm.Enzyme is added to the substance dilutions in 96-well microtitre plates and the reaction is started with substrate. Fluorescence emission is measured over 20 minutes, during which time a linear increase is observed in the absence of inhibitor.
Cathepsin S, sequence (P25774 whole entry): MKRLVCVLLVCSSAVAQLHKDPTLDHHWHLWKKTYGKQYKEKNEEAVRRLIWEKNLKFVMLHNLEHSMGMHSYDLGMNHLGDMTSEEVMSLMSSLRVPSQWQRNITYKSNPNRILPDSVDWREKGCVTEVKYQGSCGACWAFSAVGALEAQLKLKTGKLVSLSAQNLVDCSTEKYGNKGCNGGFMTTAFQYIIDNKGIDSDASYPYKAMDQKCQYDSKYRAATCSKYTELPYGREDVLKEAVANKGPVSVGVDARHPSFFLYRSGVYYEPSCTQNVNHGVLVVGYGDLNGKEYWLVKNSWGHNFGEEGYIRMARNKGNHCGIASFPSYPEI

Procathepsin L = Procathepsin L (Homo sapiens, UniProt P07711); test: as §1
Procathepsin L, sequence (P07711 whole entry): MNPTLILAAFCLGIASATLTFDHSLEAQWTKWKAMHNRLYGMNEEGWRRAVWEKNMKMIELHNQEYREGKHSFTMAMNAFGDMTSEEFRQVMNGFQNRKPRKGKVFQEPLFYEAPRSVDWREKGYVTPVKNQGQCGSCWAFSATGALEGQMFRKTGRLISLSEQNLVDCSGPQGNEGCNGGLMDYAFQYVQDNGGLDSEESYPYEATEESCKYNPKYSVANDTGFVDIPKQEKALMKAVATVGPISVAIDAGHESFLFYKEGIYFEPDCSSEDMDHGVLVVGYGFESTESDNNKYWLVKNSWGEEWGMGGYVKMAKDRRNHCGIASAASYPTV

| Structure (SMILES) | IC50 (Cathepsin S) | IC50 (Procathepsin L) |
| --- | --- | --- |
| N#CC1(NC(=O)[C@@H]2C[C@@H](Sc3ncc(C(F)(F)F)cc3Cl)CN2C(=O)C2(c3ncc(Cl)cc3F)CC2)CC1 | 1030 nM | > 25000 nM |
| N#CC1(NC(=O)[C@@H]2C[C@@H](S(=O)(=O)c3ccc(Br)cc3Cl)CN2C(=O)C2(c3ncc(Cl)cc3F)CC2)CC1 | 0.474 nM | 72.6 nM |
| N#CC1(NC(=O)[C@@H]2C[C@@H](S(=O)(=O)c3cc(C(F)(F)F)ccc3Cl)CN2C(=O)C2(c3ncc(Cl)cc3F)CC2)CC1 | 0.543 nM | 56.8 nM |
